The target of experiment [1] is T1, Sterol O-acyltransferase 1 (Homo sapiens, UniProt P35610).
T1 sequence (P35610 whole entry): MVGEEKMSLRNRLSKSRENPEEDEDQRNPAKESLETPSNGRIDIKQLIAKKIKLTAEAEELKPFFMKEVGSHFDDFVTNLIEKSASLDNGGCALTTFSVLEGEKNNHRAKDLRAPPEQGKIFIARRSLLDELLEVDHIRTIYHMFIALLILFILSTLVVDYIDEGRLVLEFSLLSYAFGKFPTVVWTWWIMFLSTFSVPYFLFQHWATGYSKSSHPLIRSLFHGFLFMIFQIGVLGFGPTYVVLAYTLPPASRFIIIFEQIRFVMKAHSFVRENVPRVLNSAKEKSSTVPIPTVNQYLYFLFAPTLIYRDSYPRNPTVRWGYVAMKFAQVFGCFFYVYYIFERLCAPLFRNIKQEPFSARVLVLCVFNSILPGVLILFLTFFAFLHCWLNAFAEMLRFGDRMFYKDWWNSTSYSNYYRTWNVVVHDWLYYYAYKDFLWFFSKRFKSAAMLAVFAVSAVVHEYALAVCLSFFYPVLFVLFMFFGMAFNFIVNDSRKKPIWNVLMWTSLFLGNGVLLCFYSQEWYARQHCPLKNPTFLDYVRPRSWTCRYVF
Put plainly: Inhibition of ACAT1- mediated cholesteryl ester synthesis in macrophages.

For experiment [2], the target named is T2, Sterol O-acyltransferase 1 (Homo sapiens) (UniProt P35610).
T2 sequence (whole entry): T1 sequence (P35610 whole entry)
Description: Inhibition of ACAT1- mediated cholesteryl ester synthesis in macrophages up to 10 uM.

The structures appear in SMILES notation. Active and inactive are the calls of the source. The rule behind the calls is not given here.

What is called IC50 is the concentration at which inhibition is half-maximal. With `CCCC[C@H](C)[C@@H]1CC(=O)N[C@@H](C(c2ccccc2)c2ccccc2)C2=N[C@H](CO2)C(=O)N[C@H](C2CCCCC2)C(=O)O1`, the IC50 in experiment [1] is 280 nM.

On to `CCCC[C@H](C)[C@@H]1CC(=O)N[C@@H](C(c2ccccc2)c2ccccc2)C(=O)N[C@H](Cn2cc(CNC(=O)CCCCNC(=O)CCCC[C@@H]3SC[C@@H]4NC(=O)N[C@@H]43)nn2)C(=O)N[C@H](C2CCCCC2)C(=O)O1`, for which, in experiment [2], the inhibition entry is “inactive”. The compound also came in with a half-maximal inhibitory concentration (IC50) in experiment [1] of 800 nM.

Values taken from ChEMBL document CHEMBL1932979, “Conformationally restricted analog and biotin-labeled probe based on beauveriolide III” (Bioorg Med Chem Lett, 2012).
